In US20210186970A1, “SELECTIVE CALCIUM CHANNEL ANTAGONISTS” (Northwestern University, priority 2011, published 2021):
Like-named read-outs stand apart in the source and are kept apart here.

Tests used:
[1] = target: T1, Cav1.3 L-type Ca channels (Rattus norvegicus, UniProt P27732); assay: FLIPR Fluo-8 calcium assay, Cav1.3 channel inhibition in HEK293 cells; format: cell-based; details: for IC50: FLIPR, HEK293, value (±SD)
T1 construct: expressed in transfected cells; host or cells: HEK293

[2] = target: Cav1.2 L-type Ca channels (Oryctolagus cuniculus, UniProt P15381); assay: FLIPR Fluo-8 calcium assay, Cav1.2 channel inhibition in HEK293 cells
[3] = first library, ratio of IC50 Cav1.2 to Cav1.3
[4] = IC50 (μM) CaV1.2, first library, FLIPR, HEK293, value (±SD)
[5] = IC50 (μM) Cav1.3, second library
[6] = second library, ratio of IC50 Cav1.2 to Cav1.3
[7] = IC50 (μM) Cav1.2, second library, FLIPR, HEK293, value (±SD)
[8] = IC50 (μM) Cav1.3, third library
[9] = third library, ratio of IC50 Cav1.2 to Cav1.3
[10] = IC50 (μM) Cav1.2, third library, FLIPR, HEK293, value (±SD)

Sequence of Cav1.2 L-type Ca channels (P15381 whole entry): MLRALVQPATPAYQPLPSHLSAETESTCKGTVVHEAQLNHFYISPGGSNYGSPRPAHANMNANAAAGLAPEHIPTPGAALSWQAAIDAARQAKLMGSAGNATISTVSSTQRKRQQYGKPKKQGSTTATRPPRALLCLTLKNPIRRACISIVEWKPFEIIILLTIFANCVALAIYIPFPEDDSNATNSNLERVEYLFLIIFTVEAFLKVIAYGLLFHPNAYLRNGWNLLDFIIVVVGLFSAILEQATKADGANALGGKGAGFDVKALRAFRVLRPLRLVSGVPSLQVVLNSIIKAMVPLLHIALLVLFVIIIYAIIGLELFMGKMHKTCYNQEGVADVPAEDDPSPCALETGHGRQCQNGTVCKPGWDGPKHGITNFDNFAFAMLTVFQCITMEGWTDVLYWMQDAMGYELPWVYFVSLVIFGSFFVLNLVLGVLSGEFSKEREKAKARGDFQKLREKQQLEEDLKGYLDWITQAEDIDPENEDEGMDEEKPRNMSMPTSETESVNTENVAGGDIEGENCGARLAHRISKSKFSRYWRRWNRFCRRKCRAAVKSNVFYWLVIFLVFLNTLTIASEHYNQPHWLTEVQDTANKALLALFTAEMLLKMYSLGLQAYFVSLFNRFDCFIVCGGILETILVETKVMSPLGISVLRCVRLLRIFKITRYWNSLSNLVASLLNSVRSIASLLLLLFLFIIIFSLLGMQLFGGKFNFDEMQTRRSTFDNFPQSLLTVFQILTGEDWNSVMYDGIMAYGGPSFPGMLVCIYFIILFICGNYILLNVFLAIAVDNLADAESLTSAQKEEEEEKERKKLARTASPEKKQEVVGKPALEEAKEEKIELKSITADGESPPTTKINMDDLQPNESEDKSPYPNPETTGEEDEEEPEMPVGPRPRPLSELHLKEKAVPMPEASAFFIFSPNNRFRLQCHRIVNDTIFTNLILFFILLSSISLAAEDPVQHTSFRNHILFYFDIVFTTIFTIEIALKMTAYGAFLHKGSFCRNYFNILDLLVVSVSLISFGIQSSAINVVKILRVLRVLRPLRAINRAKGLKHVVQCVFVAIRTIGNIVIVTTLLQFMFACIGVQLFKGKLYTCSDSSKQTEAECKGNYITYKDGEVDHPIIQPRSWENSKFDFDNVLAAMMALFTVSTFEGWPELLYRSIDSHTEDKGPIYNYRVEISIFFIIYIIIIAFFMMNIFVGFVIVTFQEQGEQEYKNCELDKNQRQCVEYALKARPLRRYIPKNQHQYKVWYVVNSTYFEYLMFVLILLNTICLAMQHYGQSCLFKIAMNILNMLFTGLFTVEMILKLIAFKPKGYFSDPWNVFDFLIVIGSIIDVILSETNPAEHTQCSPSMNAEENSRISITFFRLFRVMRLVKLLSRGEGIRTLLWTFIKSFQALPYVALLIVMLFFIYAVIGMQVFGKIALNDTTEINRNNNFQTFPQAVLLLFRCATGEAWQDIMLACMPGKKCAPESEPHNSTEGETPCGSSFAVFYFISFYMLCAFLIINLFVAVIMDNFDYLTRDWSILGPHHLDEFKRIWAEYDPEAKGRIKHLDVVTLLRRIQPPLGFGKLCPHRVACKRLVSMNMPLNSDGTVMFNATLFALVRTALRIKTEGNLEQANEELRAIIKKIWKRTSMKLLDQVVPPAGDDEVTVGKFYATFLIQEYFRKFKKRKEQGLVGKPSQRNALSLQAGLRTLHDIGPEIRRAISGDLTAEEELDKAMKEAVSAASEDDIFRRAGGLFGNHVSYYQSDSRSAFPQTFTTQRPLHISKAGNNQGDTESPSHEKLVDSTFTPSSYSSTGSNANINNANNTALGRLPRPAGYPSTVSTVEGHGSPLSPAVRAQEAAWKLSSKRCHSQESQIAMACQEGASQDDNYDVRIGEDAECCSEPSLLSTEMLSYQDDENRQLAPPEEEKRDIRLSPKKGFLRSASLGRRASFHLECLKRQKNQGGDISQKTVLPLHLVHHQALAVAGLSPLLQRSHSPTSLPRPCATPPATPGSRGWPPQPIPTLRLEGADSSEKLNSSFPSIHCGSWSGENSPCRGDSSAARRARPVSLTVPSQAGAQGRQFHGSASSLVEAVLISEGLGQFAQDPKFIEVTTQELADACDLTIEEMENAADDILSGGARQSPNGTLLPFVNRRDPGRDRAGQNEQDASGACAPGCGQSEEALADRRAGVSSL
Sequence of Cav1.2 L-type Ca channels (P54284 whole entry partner): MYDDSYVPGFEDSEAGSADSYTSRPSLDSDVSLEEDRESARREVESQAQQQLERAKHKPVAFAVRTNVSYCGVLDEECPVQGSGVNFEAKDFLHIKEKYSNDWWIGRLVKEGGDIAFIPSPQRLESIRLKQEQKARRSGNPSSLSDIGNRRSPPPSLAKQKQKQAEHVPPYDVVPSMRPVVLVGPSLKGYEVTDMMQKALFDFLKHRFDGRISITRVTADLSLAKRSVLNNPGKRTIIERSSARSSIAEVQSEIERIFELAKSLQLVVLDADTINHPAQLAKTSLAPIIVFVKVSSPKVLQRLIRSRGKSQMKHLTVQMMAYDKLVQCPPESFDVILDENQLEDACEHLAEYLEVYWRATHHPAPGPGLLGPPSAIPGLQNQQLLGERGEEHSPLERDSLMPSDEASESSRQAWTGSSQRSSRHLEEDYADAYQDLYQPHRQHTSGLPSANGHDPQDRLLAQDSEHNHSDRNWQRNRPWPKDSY
Sequence of Cav1.2 L-type Ca channels (P54289 25-956 partner limits assumed): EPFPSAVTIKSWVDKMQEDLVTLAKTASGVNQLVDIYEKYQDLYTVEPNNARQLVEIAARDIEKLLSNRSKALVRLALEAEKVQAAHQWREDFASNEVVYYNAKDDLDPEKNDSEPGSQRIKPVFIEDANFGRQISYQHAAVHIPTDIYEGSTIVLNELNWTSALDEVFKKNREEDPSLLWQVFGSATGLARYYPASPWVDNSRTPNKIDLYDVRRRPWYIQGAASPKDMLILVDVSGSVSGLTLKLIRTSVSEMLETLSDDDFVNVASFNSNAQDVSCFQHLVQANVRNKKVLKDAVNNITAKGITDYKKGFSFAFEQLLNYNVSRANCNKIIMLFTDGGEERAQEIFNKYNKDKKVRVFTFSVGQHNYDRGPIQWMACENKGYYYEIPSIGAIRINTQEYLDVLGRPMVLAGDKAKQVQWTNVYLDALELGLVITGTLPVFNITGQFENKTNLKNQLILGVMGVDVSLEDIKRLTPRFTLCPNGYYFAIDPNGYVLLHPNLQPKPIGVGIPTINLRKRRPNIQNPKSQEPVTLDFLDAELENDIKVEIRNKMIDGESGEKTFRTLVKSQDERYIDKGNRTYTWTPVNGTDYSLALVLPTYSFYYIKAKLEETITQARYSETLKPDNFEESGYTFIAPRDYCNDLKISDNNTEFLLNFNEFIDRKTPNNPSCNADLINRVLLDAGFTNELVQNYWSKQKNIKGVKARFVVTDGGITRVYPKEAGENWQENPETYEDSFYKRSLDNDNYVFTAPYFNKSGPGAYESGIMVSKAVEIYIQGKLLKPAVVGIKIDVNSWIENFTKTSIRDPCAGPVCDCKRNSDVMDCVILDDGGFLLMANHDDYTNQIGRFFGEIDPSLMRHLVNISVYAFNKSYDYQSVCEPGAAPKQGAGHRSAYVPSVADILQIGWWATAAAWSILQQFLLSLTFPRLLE
Sequence of Cav1.2 L-type Ca channels (P54289 957-1103 partner limits assumed): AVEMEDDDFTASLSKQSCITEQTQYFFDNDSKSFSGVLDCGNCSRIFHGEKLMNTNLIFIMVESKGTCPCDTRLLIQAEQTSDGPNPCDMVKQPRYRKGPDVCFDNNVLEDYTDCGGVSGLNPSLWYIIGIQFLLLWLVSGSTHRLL

Structure (SMILES) | IC50 [1, 5] [µM] | Selectivity [1, 6] | IC50 [2, 7] [µM] | IC50 [1, 8] [µM] | Selectivity [1, 9] | IC50 [2, 10] [µM] | further results
CCCCCCCCN1C(=O)CC(=O)N(CCc2ccc3ccccc3c2)C1=O [Compound 67] |  |  |  |  |  |  | IC50 ([1]; first library, read-out: IC50 (μM) CaV1.3): 1.9 µM; Selectivity [1, 3]: 4.8; IC50 [2, 4]: 8.9 µM
O=C1CC(=O)N(C2CCCCC2)C(=O)N1CCc1ccc(F)cc1 [Compound 68] |  |  |  |  |  |  | IC50 ([1]; IC50 (μM) CaV1.3, first library): 9.4 µM; Selectivity [1, 3]: 17.7; IC50 [2, 4]: 166 µM
Cc1ccc(CCN2C(=O)CC(=O)N(C3CCCCC3)C2=O)cc1 [Compound 74] | 1.8 | 3.4 | 6.1 |  |  |  | 
O=C1CC(=O)N(C2CCCCC2)C(=O)N1CCc1ccccc1Cl [Compound 76] | 5.2 | 7.7 | 44.5 |  |  |  | 
O=C1CC(=O)N(C2CCCCC2)C(=O)N1CCc1ccc(Br)cc1 [Compound 77] | 0.8 | 26.4 | 21.3 |  |  |  | 
N#Cc1ccc(CCN2C(=O)CC(=O)N(C3CCCCC3)C2=O)cc1 [Compound 78] | 49.8 | 1.1 | 56 |  |  |  | 
N#Cc1cccc(CCN2C(=O)CC(=O)N(C3CCCCC3)C2=O)c1 [Compound 79] | 10.5 | 3.5 | 36.5 |  |  |  | 
COc1ccc(CN2C(=O)CC(=O)N(C3CCCCC3)C2=O)cc1 [Compound 81] | 32.2 |  | 67.8 |  |  |  | Selectivity [1]: 2.1
O=C1CC(=O)N(C2CCCCC2)C(=O)N1Cc1ccc(Cl)cc1 [Compound 82] | 8.1 |  | 119 |  |  |  | Selectivity [1]: 14.7
O=C1CC(=O)N(C2CCCCC2)C(=O)N1Cc1cccc([N+](=O)[O-])c1 [Compound 83] | 48.2 | 1.2 | 59.5 |  |  |  | 
O=C1CC(=O)N(C2CCCCC2)C(=O)N1CCCc1ccccc1 [Compound 84] | 6.3 | 4.9 | 30.5 |  |  |  | 
O=C1CC(=O)N(C2CCc3ccccc32)C(=O)N1C1CCCCC1 (stereo not drawn) [Compound 85] | 16.4 | 1.2 | 19.2 |  |  |  | 
O=C1CC(=O)N(C2CCCCC2)C(=O)N1CCOc1ccccc1 [Compound 88] | 9.5 | 1.2 | 11.8 |  |  |  | 
O=C(O)c1cccc(CCN2C(=O)CC(=O)N(C3CCCCC3)C2=O)c1 [Compound 89] | 73 | 0.9 | 64.7 |  |  |  | 
O=C1CC(=O)N(C2CCCCCC2)C(=O)N1CCc1cccc(C(F)(F)F)c1 [Compound 90] |  |  |  | 1.7 | 3.4 | 5.7 | 
O=C1CC(=O)N(C2CCCCCC2)C(=O)N1CCc1cccc(Cl)c1 [Compound 91] |  |  |  | 2.5 | 18.5 | 45.6 | 
O=C1CC(=O)N(C2CCCCCC2)C(=O)N1CCc1ccc(Cl)cc1 [Compound 92] |  |  |  | 2.2 | 15.0 | 32.8 | 
Cc1cccc(CCN2C(=O)CC(=O)N(C3CCCCCC3)C2=O)c1 [Compound 93] |  |  |  | 13.2 | 2.3 | 30.7 | 
Cc1ccc(CCN2C(=O)CC(=O)N(C3CCCCCC3)C2=O)cc1 [Compound 94] |  |  |  | 0.9 | 16.0 | 14.9 | 
Cc1cccc(CCN2C(=O)CC(=O)N(C3CCCC3)C2=O)c1 [Compound 97] |  |  |  | 1.1 | 49.1 | 52.1 | 
Cc1ccc(CCN2C(=O)CC(=O)N(C3CCCC3)C2=O)cc1 [Compound 98] |  |  |  | 1.7 | 20.7 | 35.8 | 
O=C1CC(=O)N(C2CCC2)C(=O)N1CCc1cccc(Cl)c1 [Compound 99] |  |  |  | 2.7 | 5.4 |  | IC50 [2]: 14.6 µM
